# In patent US5188642A, “Glyphosate-resistant plants” (priority 1990, dated 1993):
# Legend:
# transgenic canola lines = assay: Glyphosate spray test, reproductive scores of transgenic canola (Example 20); format: in vivo, Brassica napus; settings: 0.28 Kg/ha, 28 days after spraying; lines with A. thaliana meristematic promoter (pMON992) versus enhanced CaMV35S promoter only (pMON987); FIG. 11
# Experimental: The transgenic, differentiated plants obtained containing the variant EPSP synthase gene as described above were analyzed for resistance to glyphosate. The transgenic plants containing the Arabidopsis EPSP synthase gene (as described) directed by the Arabidopsis thaliana promoter as also described above contained pMON992 while those plants containing the Arabidopsis EPSP synthase gene driven only by the enhanced CaMV35S promoter contained pMON987. These transgenic plants were planted and the seed from the R° plants harvested, threshed and dried before planting for a glyphosate spray test. The progeny were planted in 4-inch square pots of Metro 350 and three types of slow release fertilizers. A goal of twenty seedlings from each R° plant is desirable for testing. Germination frequency is usually high but overplanting ensures that twenty seedlings are present. The plants were thinned down by selecting the twenty most vigorous and erect seedlings seven to ten days after planting. A negative control (non-transformed, "Westar" variety) was planted at the same time to maintain quality and display the results. The plants were maintained and grown in a greenhouse environment. A sixteen-hour photoperiod and a temperature of 21° C. (day) and 15° C. (night) was maintained. Water soluble Peters Pete Lite fertilizer with an analysis of 20-19-18 was applied once per week or as needed. […]
# [1] = test system: potato stem explant tissue; settings: tissue transformed with pMON542
# Experimental: Potato--Shoot tips of virus-free Russet Burbank are subcultured on media containing MS major and minor salts, 0.17 g/l sodium dihygrogen phosphate, 0.4 mg/l thiamine hydrochloride, 0.1 g/l inositol, 3% sucrose, 1.5 g/l Gelrite™ (Kelco, Co ) at pH 5.6. Cultures are grown at 24C in a 16 hour photoperiod. Shoots are used approximately 3-4 weeks after subculturing. Stem internodes are cut into approximately 8 mm lengths and split lengthwise, then the cut surface is smeared with Agrobacterium carrying binary vector pMON542 and helper plasmid pTiT37-SE which had been streaked on an LB agar plate and grown for a few days. Stem sections are placed cut side down on the surface of the medium containing MS salts, MS organics, 3% sucrose, 2.25 mg/l BA, […] NAA, 10 mg/l GA, 1.5 g/l Gelrite at pH 5.6. After 4 days, the stem explants are transferred to the same medium but with carbenicillin at 500 mg/l and kanamycin as the selective agent at 0 or 300 mg/l. Two weeks after inoculation, the explants are moved onto medium of the same composition but without NAA.
# petunia plants = assay: Plant response to glyphosate spraying (petunia plants, track sprayer); format: in vivo; settings: isopropylamine salt with ionic surfactant
# Experimental: Four individual representative transgenic seedlings were selected, grown and tested in the testing procedure described below, along with four individual non-transformed (wild-type) petunia seedlings.
# The plants were grown in a growth medium in a growth chamber at 26° C. with 12 hours of light per day. The plants were fertilized weekly with a soluble fertilizer and watered as needed. The plants were sprayed at a uniform and reproducible delivery rate herbicide by use of an automated track sprayer.
# The glyphosate solution used was measured as pounds of glyphosate acid equivalents per acre, mixed as the glyphosate isopropylamine salt, with an ionic surfactant.
# Four individual wild-type (non-transformed) petunia plants were selected for use as control plants. Four individual transformed plants containing the pMON546 vector were selected by kanamycin resistance as described in Horsch et al 1985.
# The control plants and the transformed plants were sprayed with the isopropylamine salt of glyphosate at the application level listed in Table 2 below; the experimental results obtained are also summarized in Table 2.
# cotton tumor tissue = assay: Cotton tumor tissue growth on medium containing glyphosate; format: cell-based; settings: 0.5 mM glyphosate
# Experimental: A plant transformation vector similar to pMON546 is prepared following the general procedure outlined in Example 1 except that the CTP/EPSPS coding sequence is obtained from cotton. Seeds of cotton (cultivator Delta Pine 50) are surface sterilized using sodium hypochlorite and germinated in vitro on a basal medium in the dark. After 2 weeks hypocotyls and cotyledons are cut into pieces and innoculated with a tumorous strain of A. tumefaciens containing the above described transformation vector and helper plasmid pGV3111. After 3 days coculture on MS basal medium, the explants are transferred to the same medium with 500 mg/l carbenicillin to kill the bacteria. After 2 to 4 weeks, tumor tissue is transferred to the same medium containing 0.5 mM glyphosate.
# Control tissue was produced using tumorous A. tumefaciens cells containing the helper plasmid pGV3111 and pMON200.
# [2] = test system: sunflower tumors and callus; assay: Sunflower tumor and callus tolerance to glyphosate; format: cell-based
# Description: The following procedures are utilized to obtain transformed sunflower tissue and shoots. Tumors are incited on sterile sunflower seedlings. Sunflower seeds are surface sterilized with 40% Chlorox and sterile distilled water rinses. The seeds are germinated on an agar medium containing B5 salts, 0.5% sucrose and 0.8% agar. Seven-day old seedlings are inoculated with overnight cultures of Agrobacterium strains carrying pTiB6S3-SE by scoring the internode or stabbing the internode with a syringe and using another syringe to introduce the bacteria into the wound. Tumors form in 2-3 weeks. The tumors are removed from the seedlings and grown independently on MS medium without hormones. Transformed callus and shoots are also obtained following a different procedure. Seeds are surface sterilized and placed on the germination medium above. Germination is carried out in the light for 10 days. Hypocotyl segments, 2-3 mm are, excised and inoculated with Agrobacterium strains containing engineered constructs. The hypocotyls are co-cultured for 2 days on a medium containing MS salts and vitamins, 5 g/l KN03, 100 mg/l inositol, 40 mg/l adenine sulfate, 500 mg/l casamino acids, 1 mg/l NAA, 1 mg/l BA, 0.1 mg/l GA3, […] and 8 gm/l agar. After co-culture, the hypocotyls are placed on the same medium but containing 300 mg/l kanamycin and 500 mg/l carbenicillin.
# A. tumefaciens containing binary vectors pMON546 and helper plasmid pTiB6S3-SE are used to produce tumors and callus and regenerated plants.
smiles,measurement,setting,value
"O=C(O)CNCP(=O)(O)O [glyphosate, N-phosphonomethylglycine]",reproductive scores (scale 0-10),transgenic canola lines,higher reproductive scores
same,resistance of tissue,[1],exhibits substantial resistance to glyphosate
same,Visual Appearance,"petunia plants; Chimeric EPSPS transformants (pMON546), 0.8 #/acre acid equivalent",healthy and viable
same,Visual Appearance,"petunia plants; Control (wild-type) petunia plants, 0.4 #/acre acid equivalent",killed
same,tissue growth,cotton tumor tissue; pMON200 transformed tissue (control) and non-transformed tissue,is inhibited
same,tissue growth,cotton tumor tissue; tissue transformed with cotton CTP/EPSPS vector,demonstrates glyphosate resistance by continuing growth
same,callus response,[2]; callus without the glyphosate resistance gene,kill callus without the glyphosate resistance gene
same,tumor response,[2]; control tumors which do not contain the glyphosate resistance gene,bleach and kill control tumors
same,callus tolerance,[2]; non-tumorous callus transformed with pMON546,show tolerance to levels of glyphosate
same,tumor tolerance,[2]; tumors produced with pMON546,exhibit tolerance to glyphosate
